# Assay results published in patent US12233060B2, “Inhibitors of Ataxia-Telangiectasia Mutated and Rad3-related protein kinase (ATR) for use in methods of treating cancer” (THE INSTITUTE OF CANCER RESEARCH: ROYAL CANCER HOSPITAL, priority 2016, dated 2025).
# How the values were obtained:
# SYO1 cells = assay: DNA fibre analysis, replication fork speed in SYO1 cells; format: cell-based, human; settings: 0.1 μM for two hours; p<0.0001
# Experimental: FIG. 10. ATR inhibitors elicit replication fork stress in SS tumour cells. […] Error bars represent SEM from triplicate experiments. p values were derived from Student's t tests. B. Western blot illustrating PARP1 cleavage in SYO1 cells exposed to VX970 for 24 hours. C. Western blot illustrating H2AX phosphorylation (γH2AX) in SYO1 cells exposed to VX970 (0.1 μM). D. Confocal microspcopy images illustrating H2AX phosphorylation in SYO1 cells exposed to VX970 (0.1 μM, 24 hours). E. Bar chart depicting data from (D). Error bars represent SEM from 100 images. p values were derived from Student's t tests. F. Replication fork speeds in SYO1 cells exposed to 0.1 μM VX970 for two hours. p value was derived from a Student's t test. G. Replication fork speeds in HCT116 cells exposed to 0.1 μM VX970 for two hours in the presence and absence of ectopic expression of a SS18-SSX1 fusion protein. p values were derived from Student's t tests. Expression of SS18-SSX1 or exposure to VX970 reduced fork speed. Combined SS18-SSX1 expression and VX970 exposure enhanced the reduction in fork speed. H and I. FACS plots from SYO1 cells exposed to VX970.
# ATRi induced cytotoxicity in tumour cells derived from carcinomas is often associated with an increase in replication fork stress.
# [1] = system: SS tumour cell lines (HS-SY-II, ASKA, YAMOTO, CME1, SYO1); assay: Five-day cell viability (CellTiter-Glo) in synovial sarcoma tumour cell lines; format: cell-based, human
# Text: FIG. 8. ATR genetic dependency synovial sarcoma tumour cells—part 1. A. ATR siRNA Z scores from the siRNA screens described in FIG. 7, classified according to the cancer histology of tumour cell lines. B. Dose-response survival curves illustrating sensitivity of SS tumour cell lines to the ATR small molecule inhibitor (ATRi) VX970, compared to ATRi resistant HCT116 cells. Cells were exposed to drugs for five days and cell viability estimated using CellTiter-Glo. For each SS tumour cell line, dose response ANOVA p<0.0001 vs. HCT116. C. Dose-response survival curves illustrating sensitivity of SS tumour cell lines to VX970, compared to ATRi resistant ARID1A wild type HCT116 cells (HCT116 ARID1A^+/+) and ARID1A defective HCT116 cells (HCT116 ARID1A^−/−). Cells were exposed to drugs for five days and cell viability estimated using CellTiter-Glo. For each SS tumour cell line and HCT116 ARID1A^−/−, dose response ANOVA p<0.0001 vs. HCT116 ARID1A^+/+. D. VX970 area under the curve (AUC) values in tumour cell lines. ARID1A defective cells indicated as “ARID1A^−/−”, Ewings sarcoma tumour cell lines shown as “EWS”. E. Anti-tumour response in mice bearing established synovial sarcoma PDX, SA13412, to treatment with VX970. Median tumour volumes after the initiation of VX970 treatment are shown. Error bars represent standard error of the mean (SEM). F. Kaplan-Meier survival plot of data from (E). log rank Mantel p=0.026. G. Western blot illustrating expression of synovial sarcoma fusion proteins in HCT116 cells. A SS18-SSX1 variant with the final eight residues of SSX1 deleted (Δ71-78) is shown as d71-78. H. Bar chart illustrating induction of AXIN2 mRNA after expression of synovial sarcoma fusion proteins in HCT116 cells. I-K. Dose-response survival curves illustrating that expression of synovial sarcoma fusion proteins in HCT116 cells causes ATRi sensitivity.
# FIG. 9. ATR genetic dependency synovial sarcoma tumour cells—part 2. […] Cells were transfected with ATR siRNAs and cell viability estimated five days later by the use of Cell Titre Glo. Bar chart showing surviving fractions are shown left and middle. Western blot illustrating ATR protein silencing is shown right. Z scores from the siRNA screens described in FIG. 7, classified according to the cancer histology of tumour cell lines. B. Dose-response survival curves illustrating sensitivity of SS tumour cell lines to the ATR small molecule inhibitor (ATRi) VX970, compared to ATRi resistant HCT116 cells and non-tumour cells (HFF1, MCF10A). […]
# Having confirmed the sensitivity of SS tumour cell lines to siRNA in validation experiments (FIG. 9A), we assessed the sensitivity of the five SS tumour cell lines to the clinical ATR inhibitor (ATRi), VX970 (Vertex Pharmaceuticals). […]
structure (smiles),measurement,setting,value
"CNCc1ccc(-c2cc(-c3nc(-c4ccc(S(=O)(=O)C(C)C)cc4)cnc3N)on2)cc1 [VX-970, 5-[4-(Isopropylsulfonyl)phenyl]-3-(3-{4-[(methylamino)methyl]phenyl}-1,2-oxazol-5-yl)-2-pyrazinamine]",replication fork speed,SYO1 cells,significant reduction in replication fork speed
same,sensitivity of SS tumour cell lines vs Ewing's sarcoma and ARID1A defective tumour cells,[1]; AUC and SF50 comparison,VX970 sensitivity comparable
same,IC50,"[1]; Homo sapiens, 120 h, each of five SS tumour cell lines, five days exposure, read-out: SF50 (concentration required to cause 50% reduction in cell survival)",~100 nM
same,sensitivity of SS tumour cell lines vs ARID1A defective HCT116 cells,[1]; five days,as sensitive to VX970 as HCT116 cells
same,sensitivity of SS tumour cell lines vs ATRi resistant HCT116 cells,"[1]; five days, ANOVA p<0.0001",profoundly sensitive to VX970
